{
  "source": "patent EP1970046A1",
  "about": "“Use of purine and purine derivatives for treating hair” (priority 2007, dated 2008)",
  "type_in_all_cases": "cell-based",
  "key": {"[1]": {"system": "KGF", "assay": "KGF release from organotypic hair follicle cell cultures (ELISA)", "conditions": "organotypische Haarfollikelzellkulturen", "excerpt": "(§1) Hepatocyte Growth Factor (HGF) und Keratinocyte Growth Factor (KGF) sind wichtige Wachstumsfaktoren, die von der dermalen Papille ausgeschüttet werden, um die Proliferation der Haarschaftkeratinozyten, die für die Synthese der Haarkeratine verantwortlich sind, zu steuern. Sie sind außerdem charakteristische Marker für die Anagenphase, in der auch die Keratinsynthese maximal ist. Darüber hinaus ist zu beachten, dass bei der Haaralterung das Proliferationsvermögen der Haarfollikelzellen abnimmt. Die Ausschüttung von HGF sowie KGF kann mit Hilfe von kommerziell erhältlichen ELISA-Kits quantifiziert werden.\n(§2) Dazu werden organotypische Haarfollikelzellkulturn über 72h mit Theophyllin inkubiert und die Konzentration der Wachstumsfaktoren im Medium in beschriebener Weise bestimmt. Tabelle 2: Relative Ausschüttung von HGF und KGF in [%] nach Behandlung des organotypischen Haarfollikelzellkulturen im Vergleich zu unbehandelten Kontrollen."}, "[2]": {"system": "hha3", "assay": "cells", "conditions": "read-out: Haarkeratinexpression hha3 Mittelwert", "excerpt": "(§3) Zur Durchführung der PCR wird zunächst mit Hilfe des RNeasy Mini Kits der Fa. Qiagen die RNA aus ORS-Keratinozyten isoliert und mittels reverser Transkription in cDNA umgeschrieben. Bei der anschließenden PCR Reaktion, die mit Hilfe genspezifischer Primer für die jeweiligen haarrelevanten Gene durchgeführt wird und die der Amplifikation der gesuchten Genabschnitte dient, wird die Bildung der PCR-Produkte online über ein Fluoreszenzsignal detektiert. Das Fluoreszenzsignal ist dabei proportional zur Menge des gebildeten PCR-Produktes. Je stärker die Expression eines bestimmten Gens Ist, desto größer Ist die Menge an gebildetem PCR-Produkt und um so höher ist das Fluoreszenzsignal. Zur Quantifizierung der Genexpression wird die unbehandelte Kontrolle gleich 1 gesetzt und die Expression der zu bestimmenden Gene darauf bezogen (x-fache Expression). Dabei werden Werte, die größer/gleich der 2fachen Expression oder kleiner/gleich der 0.5fachen Expression der unbehandelten Kontrolle sind als signifikant differentiell exprimiert eingestuft. Werte, die größer/gleich der 1,6fachen Expression oder kieiner/gleich der 0.66fachen Expression der unbehandelten Kontrolle sind als tendenziell differentiell exprimiert eingestuft. Die Ergebnisse sind in Tabelle 3 zusammengefasst. Tabelle 3: Haarkeratinexpression nach Behandlung von ORS-Keratinozyten in Zellkulturen im Vergleich zur unbehandelten Kontrolle.\n(§4) Die Aktivierung der Keratinsynthese nach Applikation von Theophyllin wurde zusätzlich mit Hilfe organotypischer Haarfollikelzelikulturen untersucht, in denen verschiedene Zellen des Haarfollikels miteinander interagieren können. Die Untersuchungen erfolgten mit dem in Beispiel 3 erläuterten Verfahren der quantitativen Reverse Transkription Polymerase Kettenreaktion. Die Ergebnisse sind in Tabelle 4 zusammengefasst. Tabelle 4: Haarkeratinexpression nach Behandlung mit Theophyllin in organotpischen Haarfollikelzellkulturen im Vergleich zur unbehandelten Kontrolle."}, "[3]": {"system": "hhb6", "assay": "cells", "conditions": "read-out: Haarkeratinexpression hhb6 Mittelwert", "excerpt": "as §3, §4"}, "[4]": {"system": "hha4", "assay": "cells", "conditions": "read-out: Haarkeratinexpression hha4 Mittelwert", "excerpt": "as §3, §4"}, "[5]": {"system": "hha3", "assay": "cells", "conditions": "Keratinocyte, read-out: Haarkeratinexpression hha3 Mittelwert", "method": "(§5) Zur Bestimmung des Einflusses von Theophyllin auf die Expression von Haarkeratinen wurde die differentielle Genexpression mittels quantitatitiver RT-PCR bestimmt. Nach Anzucht der Keratinozyten der äusseren Wurzelscheide (ORS-Keratinozyten) wurden diese für 3, 6 oder 24 h mit Theophyllin in Konzentration von 1.10 und 100 µM inkubiert.\nas §3"}, "[6]": {"system": "hhb6", "assay": "cells", "conditions": "Keratinocyte, read-out: Haarkeratinexpression hhb6 Mittelwert", "method": "as §5, §3"}, "[7]": {"system": "hha4", "assay": "cells", "conditions": "Keratinocyte, read-out: Haarkeratinexpression hha4 Mittelwert", "method": "as §5, §3"}, "[8]": {"system": "hha1", "assay": "cells", "conditions": "Keratinocyte, read-out: Haarkeratinexpression hha1 Mittelwert", "method": "as §5, §3"}, "[9]": {"system": "hha6", "assay": "cells", "conditions": "Keratinocyte, read-out: Haarkeratinexpression hha6 Mittelwert", "method": "as §5, §3"}, "[10]": {"system": "HGF", "assay": "HGF release from organotypic hair follicle cell cultures (ELISA)", "conditions": "organotypische Haarfollikelzellkulturen", "excerpt": "as §1, §2"}, "[11]": {"system": "KGF", "assay": "KGF release from dermal papilla cells (ELISA)", "conditions": "dermale Papillenzellen", "excerpt": "Der Keratinozyten Wachstumsfaktor Factor (KGF) Ist ein äußerst wichtiger Regulator des Haars. Bei einer potentiell wachstumsfördernden und das Haar stärkenden Aktivsubstanz kann von einer Steigerung der ins Medium ausgeschütteten Faktoren ausgegangen werden. Die Ausschüttung von KGF kann mit Hilfe von kommerziell erhältlichen ELISA-Kits quantifiziert werden. Dazu wurden die dermalen Papillenzellen über 24 Stunden mit Theophyllin inkubiert und die Konzentration des Wachstumsfaktors im Medium in beschriebener Weise quantifiziert. Tabelle 1: Relative Ausschüttung von KGF in [%] nach Behandlung der dermalen Papillenzellen im Vergleich zur unbehandelten Kontrollen."}},
  "note": "Read-outs that look alike come from different tables or passages of the source.",
  "data": [
    {"smiles": "Cn1c(=O)c2[nH]cnc2n(C)c1=O", "note": "[Theophyllin]", "values": [
      {"measurement": "Freisetzung von KGF", "setting": "[1]; 500 µM, result in words", "value": "tendenziell erhöhten Freisetzung"},
      {"measurement": "activity at 500 µM", "setting": "[1]; 72h, untreated = 100 (35), spread in brackets, read-out: Relative Ausschüttung von KGF Mittelwert", "value": 144, "unit": "%"},
      {"measurement": "fold induction at 10 µM", "setting": "[2]; 6 h", "value": 0.76},
      {"measurement": "fold induction at 100 µM", "setting": "[2]; 6 h", "value": 0.76},
      {"measurement": "fold induction at 10 µM", "setting": "[2]; 24 h", "value": 2.27},
      {"measurement": "fold induction at 100 µM", "setting": "[2]; 24 h", "value": 3},
      {"measurement": "fold induction at 10 µM", "setting": "[3]; 6 h", "value": 1.28},
      {"measurement": "fold induction at 100 µM", "setting": "[3]; 6 h", "value": 2.06},
      {"measurement": "fold induction at 10 µM", "setting": "[3]; 24 h", "value": 1.81},
      {"measurement": "fold induction at 100 µM", "setting": "[3]; 24 h", "value": 1.68},
      {"measurement": "fold induction at 10 µM", "setting": "[4]; 6 h", "value": 0.91},
      {"measurement": "fold induction at 100 µM", "setting": "[4]; 6 h", "value": 1.56},
      {"measurement": "fold induction at 10 µM", "setting": "[4]; 24 h", "value": 2.08},
      {"measurement": "fold induction at 100 µM", "setting": "[4]; 24 h", "value": 1.88},
      {"measurement": "fold induction at 1 µM", "setting": "[5]; 3 h", "value": 0.86},
      {"measurement": "fold induction at 10 µM", "setting": "[5]; 3 h", "value": 1.47},
      {"measurement": "fold induction at 100 µM", "setting": "[5]; 3 h", "value": 2.47},
      {"measurement": "fold induction at 1 µM", "setting": "[5]; 6 h", "value": 0.8},
      {"measurement": "fold induction at 10 µM", "setting": "[5]; 6 h", "value": 0.87},
      {"measurement": "fold induction at 100 µM", "setting": "[5]; 6 h", "value": 1.25},
      {"measurement": "fold induction at 1 µM", "setting": "[5]; 24 h", "value": 1.2},
      {"measurement": "fold induction at 10 µM", "setting": "[5]; 24 h", "value": 1.41},
      {"measurement": "fold induction at 100 µM", "setting": "[5]; 24 h", "value": 2.75},
      {"measurement": "fold induction at 1 µM", "setting": "[6]; 3 h", "value": 1.09},
      {"measurement": "fold induction at 10 µM", "setting": "[6]; 3 h", "value": 1.12},
      {"measurement": "fold induction at 100 µM", "setting": "[6]; 3 h", "value": 1.78},
      {"measurement": "fold induction at 1 µM", "setting": "[6]; 6 h", "value": 0.8},
      {"measurement": "fold induction at 10 µM", "setting": "[6]; 6 h", "value": 0.76},
      {"measurement": "fold induction at 100 µM", "setting": "[6]; 6 h", "value": 1.23},
      {"measurement": "fold induction at 1 µM", "setting": "[6]; 24 h", "value": 1.34},
      {"measurement": "fold induction at 10 µM", "setting": "[6]; 24 h", "value": 1.28},
      {"measurement": "fold induction at 100 µM", "setting": "[6]; 24 h", "value": 1.98},
      {"measurement": "fold induction at 1 µM", "setting": "[7]; 3 h", "value": 0.83},
      {"measurement": "fold induction at 10 µM", "setting": "[7]; 3 h", "value": 1.4},
      {"measurement": "fold induction at 100 µM", "setting": "[7]; 3 h", "value": 2.41},
      {"measurement": "fold induction at 1 µM", "setting": "[7]; 6 h", "value": 0.81},
      {"measurement": "fold induction at 10 µM", "setting": "[7]; 6 h", "value": 0.88},
      {"measurement": "fold induction at 100 µM", "setting": "[7]; 6 h", "value": 1.31},
      {"measurement": "fold induction at 1 µM", "setting": "[7]; 24 h", "value": 1.27},
      {"measurement": "fold induction at 10 µM", "setting": "[7]; 24 h", "value": 1.48},
      {"measurement": "fold induction at 100 µM", "setting": "[7]; 24 h", "value": 2.65},
      {"measurement": "fold induction at 1 µM", "setting": "[8]; 3 h", "value": 0.73},
      {"measurement": "fold induction at 10 µM", "setting": "[8]; 3 h", "value": 1.18},
      {"measurement": "fold induction at 100 µM", "setting": "[8]; 3 h", "value": 1.38},
      {"measurement": "fold induction at 1 µM", "setting": "[8]; 6 h", "value": 0.9},
      {"measurement": "fold induction at 10 µM", "setting": "[8]; 6 h", "value": 0.92},
      {"measurement": "fold induction at 100 µM", "setting": "[8]; 6 h", "value": 1.22},
      {"measurement": "fold induction at 1 µM", "setting": "[8]; 24 h", "value": 1.3},
      {"measurement": "fold induction at 10 µM", "setting": "[8]; 24 h", "value": 1.4},
      {"measurement": "fold induction at 100 µM", "setting": "[8]; 24 h", "value": 2.49},
      {"measurement": "fold induction at 1 µM", "setting": "[9]; 3 h", "value": 0.45},
      {"measurement": "fold induction at 10 µM", "setting": "[9]; 3 h", "value": 0.59},
      {"measurement": "fold induction at 100 µM", "setting": "[9]; 3 h", "value": 0.28},
      {"measurement": "fold induction at 1 µM", "setting": "[9]; 6 h", "value": 1.12},
      {"measurement": "fold induction at 10 µM", "setting": "[9]; 6 h", "value": 0.42},
      {"measurement": "fold induction at 100 µM", "setting": "[9]; 6 h", "value": 0.57},
      {"measurement": "fold induction at 1 µM", "setting": "[9]; 24 h", "value": 3.19},
      {"measurement": "fold induction at 10 µM", "setting": "[9]; 24 h", "value": 2.14},
      {"measurement": "fold induction at 100 µM", "setting": "[9]; 24 h", "value": 1.61},
      {"measurement": "activity at 500 µM", "setting": "[10]; HGF, 72h, untreated = 100 (14), spread in brackets, read-out: Relative Ausschüttung von HGF Mittelwert", "value": 144, "unit": "%"},
      {"measurement": "Freisetzung des Hepatozyten Wachstumsfaktor (HGF)", "setting": "[10]; 500 µM, result in words", "value": "erhöhte Freisetzung"},
      {"measurement": "activity at 1 µM", "setting": "[11]; 24 h, 24 Stunden, 1µM, untreated control = 100, read-out: Relative Ausschüttung von KGF Mittelwert", "value": 121, "unit": "%"},
      {"measurement": "activity at 10 µM", "setting": "[11]; 24 h, 24 Stunden, 10µM, untreated control = 100, read-out: Relative Ausschüttung von KGF Mittelwert", "value": 135, "unit": "%"},
      {"measurement": "activity at 100 µM", "setting": "[11]; 24 h, 24 Stunden, 100µM, untreated control = 100, read-out: Relative Ausschüttung von KGF Mittelwert", "value": 161, "unit": "%"},
      {"measurement": "Freisetzung von KGF", "setting": "[11]; result in words", "value": "signifikant erhöhten Freisetzung"}
    ]}
  ]
}
